Measured values published in patent US9243002B2, “Tetracyclic heterocycle compounds and methods of use thereof for the treatment of hepatitis C” (priority 2013, dated 2016).
Where two headings read alike, the source gives them in different places.

Legend:
HCV genotype 1b replicon = assay: HCV replicon assay, genotype 1b (cell ELISA for NS3/4A); assay type: cell-based, hepatitis C virus
Experimental: (§1) Measurement of inhibition by compounds was performed using the HCV replicon system. Several different replicons encoding different HCV genotypes or mutations were used. In addition, potency measurements were made using different formats of the replicon assay, including different ways of measurements and different plating formats. See Jan M. Vrolijk et al., A replicons-based bioassay for the measurement of interferons in patients with chronic hepatitis C, 110 J. VIROLOGICAL METHODS 201 (2003); Steven S. Carroll et al., Inhibition of Hepatitis C Virus RNA Replication by 2′-Modified Nucleoside Analogs, 278 (14) J. BIOLOGICAL CHEMISTRY 11979 (2003). However, the underlying principles are common to all of these determinations, and are outlined below.
(§2) Stable neomycin phosphotransferase encoding replicons-harboring cell lines were used, so all cell lines were maintained under G418 selection prior to the assay. Potency was deteremined using a cell ELISA assay with an antibody to the replicons encoded NS3/4a protease. See Caterina Trozzi et al., In Vitro Selection and Characterization of Hepatitis C Virus Serine Protease Variants Resistant to an Active-Site Peptide Inhibitor, 77 (6) J. Virol. 3669 (2003). To initiate an assay, replicon cells were plated in the presence of a dilution series of test compound in the absence of G418. Typically, the assays were performed in a 96-well plate formate for manual operation, or a 384-well plate format for automated assay. Replicon cells and compound were incubated for 96 hours. At the end of the assay, cells were washed free of media and compound, and the cells were then lysed. RNA was quantified indirectly through detection of replicon-encoded NS3/4A protein levels, through an ELISA-based assay with an antibody specific for NS3/4A. IC50 determinations were calculated as a percentage of a DMSO control by fitting the data to a four-parameter fit function and the data obtained for genotypes 1a and 1b using this method is provided in the table below.

HCV genotype 1a replicon = assay: HCV replicon assay, genotype 1a (cell ELISA for NS3/4A); assay type: cell-based, hepatitis C virus
Experimental: as §1, §2

[1] = Hepatitis C virus, 96 h, read-out: 1b IC50 (nM), genotype 1b replicon cells, 96 hours incubation, NS3/4A ELISA
[2] = Hepatitis C virus, 96 h, read-out: 1a IC50 (nM), genotype 1a replicon cells, 96 hours incubation, NS3/4A ELISA
[3] = read-out: 1b IC50, genotype 1b replicon cells, 96 hours incubation, NS3/4A ELISA
[4] = read-out: 1a IC50, genotype 1a replicon cells, 96 hours incubation, NS3/4A ELISA

## CNC(=O)c1c(-c2ccc(F)cc2)oc2cc(N(C)S(C)(=O)=O)c(-c3ccc4c(n3)-c3cc5c(F)cccc5n3C(CN3CC(F)C3)C4)cc12 (stereo not shown) [Example 90, 5-(11-fluoro-6-((3-fluoroazetidin-1-yl)methyl)-5,6-dihydroindolo[1,2-h][1,7]naphthyridin-2-yl)-2-(4-fluorophenyl)-N-methyl-6-(N-methylmethylsulfonamido)benzofuran-3-carboxamide]
HCV genotype 1b replicon; [1]
  IC50: 2.79 nM
HCV genotype 1a replicon; [2]
  IC50: 7.23 nM

## CNC(=O)c1c(-c2nocc2C)oc2cc(N(C)S(C)(=O)=O)c(-c3ccc4c(n3)-c3cc5c(F)cccc5n3CC4)cc12 [Example 35, 5-(11-fluoro-5,6-dihydroindolo[1,2-h][1,7]naphthyridin-2-yl)-N-methyl-2-(4-methylisoxazol-3-yl)-6-(N-methylmethylsulfonamido)benzofuran-3-carboxamide]
HCV genotype 1b replicon; [1]
  IC50: 5.19 nM
HCV genotype 1a replicon; [2]
  IC50: 3.28 nM

## CNC(=O)c1c(-c2ccc(F)cc2)oc2cc(N(C)S(C)(=O)=O)c(-c3ccc4ccn5c6ccccc6c(C)c5c4n3)cc12 [Example 79, 2-(4-fluorophenyl)-N-methyl-5-(12-methylindolo[1,2-h][1,7]naphthyridin-2-yl)-6-(N-methylmethylsulfonamido)benzofuran-3-carboxamide]
HCV genotype 1b replicon; [1]
  IC50: 77.3 nM
HCV genotype 1a replicon; [2]
  IC50: 93.8 nM

## CCc1ccc(-c2oc3cc(N(C)S(C)(=O)=O)c(-c4ccc5c(n4)-c4cc6c(F)cccc6n4CC5)cc3c2C(=O)NC)cn1 [Example 9]
HCV genotype 1b replicon; [1]
  IC50: 31.2 nM
HCV genotype 1a replicon; [2]
  IC50: 38.2 nM

## CNC(=O)c1c(-c2c(C)n[nH]c2C)oc2cc(N(C)S(C)(=O)=O)c(-c3ccc4c(n3)-c3cc5c(F)cccc5n3CC4)cc12 [Example 26]
HCV genotype 1b replicon; [1]
  IC50: 84.4 nM
HCV genotype 1a replicon; [2]
  IC50: 69.3 nM

## CNC(=O)c1c(-c2cnc(C)s2)oc2cc(N(C)S(C)(=O)=O)c(-c3ccc4c(n3)-c3cc5c(F)cccc5n3CC4)cc12 [Example 36, 5-(11-fluoro-5,6-dihydroindolo[1,2-h][1,7]naphthyridin-2-yl)-N-methyl-6-(N-methylmethylsulfonamido)-2-(2-methylthiazol-5-yl)benzofuran-3-carboxamide]
HCV genotype 1b replicon; [1]
  IC50: 10.2 nM
HCV genotype 1a replicon; [2]
  IC50: 10.3 nM

## CNC(=O)c1c(-c2ccc(F)cc2)oc2cc(N(C)S(C)(=O)=O)c(-c3ccc4c(n3)-c3cc5c(F)cccc5n3C(CN3CC(F)(F)C3)C4)cc12 (stereo not shown) [Example 91]
HCV genotype 1b replicon; [1]
  IC50: 9.23 nM
HCV genotype 1a replicon; [2]
  IC50: 27.6 nM

## CNC(=O)c1c(-c2ccc(F)cc2)oc2cc(N(C)S(C)(=O)=O)c(-c3ccc4c(n3)-c3cc5ncccc5n3CC4)cc12 [Example 77]
HCV genotype 1b replicon; [1]
  IC50: 4.03 nM
HCV genotype 1a replicon; [2]
  IC50: 27.9 nM

## CNC(=O)c1c(-c2ccc(C)nc2)oc2cc(N(C)S(C)(=O)=O)c(-c3ccc4c(n3)-c3cc5c(F)cccc5n3C(CCN3CC(F)C3)C4)cc12 (stereo not shown) [Example 67]
HCV genotype 1b replicon; [3]
  IC50: 16.4 nM
HCV genotype 1a replicon; [4]
  IC50: 12.5 nM

## CNC(=O)c1c(-c2ccc(F)cc2)oc2cc(N(C)S(C)(=O)=O)c(-c3cc4c(cn3)CC(C)(C)n3c-4cc4c(F)cccc43)cc12 [Example 64, 5-(11-fluoro-6,6-dimethyl-5,6-dihydroindolo[2,1-a][2,6]naphthyridin-2-yl)-2-(4-fluorophenyl)-N-methyl-6-(N-methylmethylsulfonamido)benzofuran-3-carboxamide]
HCV genotype 1b replicon; [1]
  IC50: 9.09 nM
HCV genotype 1a replicon; [2]
  IC50: 23.2 nM

## CNC(=O)c1c(-c2ccc(F)cc2)oc2cc(N(C)S(C)(=O)=O)c(-c3ccc4c(n3)-c3cc5c(F)cccc5n3C4)cc12 [Example 88, 5-(10-fluoro-5H-pyrido[2′,3′:3,4]pyrrolo[1,2-a]indol-2-yl)-2-(4-fluorophenyl)-N-methyl-6-(N-methylmethylsulfonamido)benzofuran-3-carboxamide]
HCV genotype 1b replicon; [1]
  IC50: 9.43 nM
HCV genotype 1a replicon; [2]
  IC50: 8.73 nM

## CNC(=O)c1c(-c2ccc(F)cc2Cl)oc2cc(N(C)S(C)(=O)=O)c(-c3ccc4c(n3)-c3cc5c(F)cccc5n3CC4)cc12 [Example 12]
HCV genotype 1b replicon; [1]
  IC50: 10.6 nM
HCV genotype 1a replicon; [2]
  IC50: 4.59 nM

## CNC(=O)c1c(-c2ccc(F)cc2)oc2cc(N(C)S(C)(=O)=O)c(-c3ccc4c(n3)-c3cc5c(F)cccc5n3CC4F)cc12 (stereo not shown) [Example 89, 5-(5,11-difluoro-5,6-dihydroindolo[1,2-h][1,7]naphthyridin-2-yl)-2-(4-fluorophenyl)-N-methyl-6-(N-methylmethylsulfonamido)benzofuran-3-carboxamide]
HCV genotype 1b replicon; [1]
  IC50: 5.49 nM
HCV genotype 1a replicon; [2]
  IC50: 2.12 nM

## CNC(=O)c1c(-c2ccc(F)cc2)oc2cc(N(C)S(C)(=O)=O)c(-c3cnc4c(n3)-c3cc5c(F)cccc5n3CC4)cc12 [Example 44, 5-(11-fluoro-5,6-dihydropyrazino[2′,3′:3,4]pyrido[1,2-a]indol-2-yl)-2-(4-fluorophenyl)-N-methyl-6-(N-methylmethylsulfonamido)benzofuran-3-carboxamide]
HCV genotype 1b replicon; [1]
  IC50: 1.87 nM
HCV genotype 1a replicon; [2]
  IC50: 1.76 nM

## CNC(=O)c1c(-c2ccc(C)nc2)oc2cc(N(C)S(C)(=O)=O)c(-c3ccc4c(n3)-c3cc5c(F)cccc5n3CC4)cc12 [Example 7]
HCV genotype 1b replicon; [1]
  IC50: 6.79 nM
HCV genotype 1a replicon; [2]
  IC50: 17.6 nM

## CNC(=O)c1c(-c2ccc(F)cc2)oc2cc(N(C)S(C)(=O)=O)c(-c3ccc4c(n3)-c3cc5c(F)cccc5n3CC4C)cc12 (stereo not shown) [Example 62]
HCV genotype 1b replicon; [1]
  IC50: 2.55 nM
HCV genotype 1a replicon; [2]
  IC50: 2.69 nM

## CNC(=O)c1c(-c2ccc(F)cc2)oc2cc(N(C)S(C)(=O)=O)c(-c3ccc4c(n3)-c3cc5c(F)cccc5n3C(CF)C4)cc12 (stereo not shown) [Example 96, 5-(11-fluoro-6-(fluoromethyl)-5,6-dihydroindolo[1,2-h][1,7]naphthyridin-2-yl)-2-(4-fluorophenyl)-N-methyl-6-(N-methylmethylsulfonamido)benzofuran-3-carboxamide]
HCV genotype 1b replicon; [1]
  IC50: 3.18 nM
HCV genotype 1a replicon; [2]
  IC50: 7.89 nM

## CNC(=O)c1c(-c2ccc(C)nc2)oc2cc(N(C)S(C)(=O)=O)c(-c3ccc4c(n3)-c3cc5c(F)cccc5n3C(CCN3CC(F)C3)C4)cc12 (stereo not shown) [Example 68]
HCV genotype 1b replicon; [3]
  IC50: 60.6 nM
HCV genotype 1a replicon; [4]
  IC50: 70.9 nM

## CNC(=O)c1c(-c2ccc(F)cc2F)oc2cc(N(C)S(C)(=O)=O)c(-c3ccc4c(n3)-c3cc5c(F)cccc5n3C(CO)C4)cc12 (single isomer, unassigned) [Example 50, (R or S)-2-(2,4-difluorophenyl)-5-(1.1-fluoro-6-(hydroxymethyl)-5,6-dihydroindolo[1,2-h][1,7]naphthyridin-2-yl)-N-methyl-6-(N-methylmethylsulfonamido)benzofuran-3-carboxamide]
HCV genotype 1b replicon; genotype 1b replicon cells, 96 hours incubation, NS3/4A ELISA, read-out: 1b IC50
  IC50: 3.36 nM
HCV genotype 1a replicon; genotype 1a replicon cells, 96 hours incubation, NS3/4A ELISA, read-out: 1a IC50
  IC50: 1.15 nM

## CNC(=O)c1c(-n2ccc(C)cc2=O)oc2cc(N(C)S(C)(=O)=O)c(-c3ccc4c(n3)-c3cc5c(F)cccc5n3CC4)cc12 [Example 32, 5-(11-fluoro-5,6-dihydroindolo[1,2-h][1,7]naphthyridin-2-yl)-N-methyl-2-(4-methyl-2-oxopyridin-1 (2H)-yl)-6-(N-methylmethylsulfonamido)benzofuran-3-carboxamide]
HCV genotype 1b replicon; [1]
  IC50: 3.95 nM
HCV genotype 1a replicon; [2]
  IC50: 10.6 nM

## CNC(=O)c1c(-c2ccc(F)cc2)oc2cc(N(C)S(C)(=O)=O)c(-c3ccc4c(n3)-c3cc5c(F)cccc5n3CC=C4)cc12 [Example 98, 5-(12-fluoro-7H-pyrido[2′,3′:3,4]azepino[1,2-a]indol-2-yl)-2-(4-fluorophenyl)-N-methyl-6-(N-methylmethylsulfonamido)benzofuran-3-carboxamide]
HCV genotype 1b replicon; [1]
  IC50: 8.65 nM
HCV genotype 1a replicon; [2]
  IC50: 4.17 nM

## CNC(=O)c1c(-c2ccc(F)cc2C#N)oc2cc(N(C)S(C)(=O)=O)c(-c3ccc4c(n3)-c3cc5c(F)cccc5n3CC4)cc12 [Example 13]
HCV genotype 1b replicon; [1]
  IC50: 16.5 nM
HCV genotype 1a replicon; [2]
  IC50: 17.3 nM

## CNC(=O)c1c(-c2ccc(F)cc2)oc2cc(N(C)S(C)(=O)=O)c(-c3cnc4c(c3)-c3cc5c(F)cccc5n3CC4)cc12 [Example 43, 5-(11-fluoro-5,6-dihydroindolo[2,1-f][1,6]naphthyridin-2-yl)-2-(4-fluorophenyl)-N-methyl-6-(N-methylmethylsulfonamido)benzofuran-3-carboxamide]
HCV genotype 1b replicon; [1]
  IC50: 3.7 nM
HCV genotype 1a replicon; [2]
  IC50: 1.74 nM

## CNC(=O)c1c(-c2cnc(C(C)(C)O)s2)oc2cc(N(C)S(C)(=O)=O)c(-c3ccc4c(n3)-c3cc5c(F)cccc5n3CC4)cc12 [Example 20]
HCV genotype 1b replicon; [1]
  IC50: 129 nM
HCV genotype 1a replicon; [2]
  IC50: 680 nM

## CNC(=O)c1c(-c2ccc(F)cc2)oc2cc(N(C)S(C)(=O)=O)c(-c3ccc4c(n3)-c3cc5c(F)cccc5n3C(CN3CCC3)C4)cc12 (stereo not shown) [Example 92]
HCV genotype 1b replicon; [1]
  IC50: 2.55 nM
HCV genotype 1a replicon; [2]
  IC50: 46.5 nM

## CNC(=O)c1c(-c2ccc(F)cc2)oc2cc(N(C)S(C)(=O)=O)c(-c3ccc4c(n3)-c3cc5cc(F)ccc5n3CC4)cc12 [Example 31, 5-(10-fluoro-5,6-dihydroindolo[1,2-h][1,7]naphthyridin-2-yl)-2-(4-fluorophenyl)-N-methyl-6-(N-methylmethylsulfonamido)benzofuran-3-carboxamide]
HCV genotype 1b replicon; [1]
  IC50: 4.64 nM
HCV genotype 1a replicon; [2]
  IC50: 4.53 nM
